Data on 26 compounds can be found in patent US9914730B2, “Azaquinazoline inhibitors of Atypical protein Kinase C” (Ignyta, Inc., priority 2012, dated 2018).

For this experiment, the target named is T1, full-length human PKCι (Homo sapiens, UniProt P41743).
T1 construct: Recombinant, full-length human PKCι expressed in Sf21 insect cells is also commercially available; purchased; host or cells: Sf21 insect cells
T1 sequence (P41743 1-596): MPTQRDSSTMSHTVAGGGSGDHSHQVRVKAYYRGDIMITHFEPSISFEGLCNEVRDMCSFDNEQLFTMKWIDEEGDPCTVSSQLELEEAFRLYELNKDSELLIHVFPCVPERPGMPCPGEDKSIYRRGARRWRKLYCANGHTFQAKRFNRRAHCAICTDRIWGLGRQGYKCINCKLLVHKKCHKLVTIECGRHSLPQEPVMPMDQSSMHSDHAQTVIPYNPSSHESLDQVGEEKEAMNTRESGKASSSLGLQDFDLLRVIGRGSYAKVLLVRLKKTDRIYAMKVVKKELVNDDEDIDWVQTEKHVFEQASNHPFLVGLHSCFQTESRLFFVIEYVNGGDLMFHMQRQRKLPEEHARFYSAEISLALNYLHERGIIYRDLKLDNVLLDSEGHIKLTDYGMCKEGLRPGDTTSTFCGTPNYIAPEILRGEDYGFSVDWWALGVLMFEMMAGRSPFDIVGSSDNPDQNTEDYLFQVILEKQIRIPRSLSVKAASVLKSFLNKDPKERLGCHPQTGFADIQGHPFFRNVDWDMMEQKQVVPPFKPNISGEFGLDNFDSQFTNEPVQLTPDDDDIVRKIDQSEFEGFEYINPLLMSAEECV
The experiment can be described thus: PKCι IC50 IMAP assay, full-length PKCι at 150 μM ATP. The format is biochemical. Particulars: read-out: IC50 in IMAP assay against full length PKCi at 150 μM ATP. Summed up:
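Full-length hPKCι (Sf21) ~15 pM; 5FAM-peptide 100 nM; ATP 150 μM (5× KM^APP); tris pH7.5/MgCl2/EGTA/DTT/Triton, 4% DMSO; 60 min RT; IMAP stop, 2 h; FP 485/530 nm; IC50 from % inhibition curves.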
Turning to `c1cc(-c2nc(N3CCNCC3)c3c(C4CCC4)cncc3n2)c2cc(C3CCCCC3)[nH]c2n1` [Example 2153, 5-Cyclobutyl-2-(2-cyclohexyl-1H-pyrrolo[2,3-b]pyridin-4-yl)-4-piperazin-1-yl-pyrido[3,4-d]pyrimidine], the IC50 (as a rule, the point on the concentration scale where inhibition reaches its midpoint) is below 100 nM. Then `FC(F)(F)c1ccc(-n2cc(Nc3cc(-c4nc(N5CCNCC5)c5c(C6CC6)cncc5n4)ccn3)c(Cl)n2)nc1` [Example 2154, [3-Chloro-1-(5-trifluoromethyl-pyridin-2-yl)-1H-pyrazol-4-yl]-[4-(5-cyclopropyl-4-piperazin-1-yl-pyrido[3,4-d]pyrimidin-2-yl)-pyridin-2-yl]-amine], with below 100 nM. For the compound `FC(F)(F)c1cc2c(-c3nc(NC4CCNCC4(F)F)c4c(C5CC5)cncc4n3)ccnc2[nH]1` (centres unmarked) [Example 2155, [5-Cyclopropyl-2-(2-trifluoromethyl-1H-pyrrolo[2,3-b]pyridin-4-yl)-pyrido[3,4-d]pyrimidin-4-yl]-(3,3-difluoro-piperidin-4-yl)-amine], the IC50 fell in the range of 100 to 1000 nM. As for `Fc1cnc(Nc2cc(-c3nc(NC4CCNCC4(F)F)c4c(C5CC5)cncc4n3)ccn2)c(F)c1` (centres unmarked) [Example 2156, {5-Cyclopropyl-2-[2-(3,5-difluoro-pyridin-2-ylamino)-pyridin-4-yl]-pyrido[3,4-d]pyrimidin-4-yl}-(3,3-difluoro-piperidin-4-yl)-amine], the IC50 lay in the range of 100 to 1000 nM. To `CN(c1nc(-c2ccnc(Nc3ncc(F)cc3F)c2)nc2cncc(C3CCC3)c12)C1CCNCC1` [Example 2157, {5-Cyclobutyl-2-[2-(3,5-difluoro-pyridin-2-ylamino)-pyridin-4-yl]-pyrido[3,4-d]pyrimidin-4-yl}-methyl-piperidin-4-yl-amine] belongs below 100 nM; to `OC[C@H](Nc1cc(-c2nc(N3CCNCC3)c3c(C4CC4)cncc3n2)ccn1)c1ccccc1` [Example 2159, (R)-2-[4-(5-Cyclopropyl-4-piperazin-1-yl-pyrido[3,4-d]pyrimidin-2-yl)-pyridin-2-ylamino]-2-phenyl-ethanol], 100 to 1000 nM; to `C[C@@H](Nc1cc(-c2nc(N3CCNCC3)c3c(C4CC4)cncc3n2)ccn1)c1ccc2ccccc2c1` [Example 2160, [4-(5-Cyclopropyl-4-piperazin-1-yl-pyrido[3,4-d]pyrimidin-2-yl)-pyridin-2-yl]-((R)-1-naphthalen-2-yl-ethyl)-amine], below 100 nM. Then `C[C@@H](Nc1cc(-c2nc(N3CCNCC3)c3c(C4CCC4)cncc3n2)ccn1)c1ccccc1F` [Example 2161, [4-(5-Cyclobutyl-4-piperazin-1-yl-pyrido[3,4-d]pyrimidin-2-yl)-pyridin-2-yl]-[(R)-1-(2-fluoro-phenyl)-ethyl]-amine], with below 100 nM; and `FC(F)(F)Oc1ccc(Nc2cc(-c3nc(N4CCNCC4)c4c(C5CC5)cncc4n3)ccn2)cc1` [Example 2162, [4-(5-Cyclopropyl-4-piperazin-1-yl-pyrido[3,4-d]pyrimidin-2-yl)-pyridin-2-yl]-(4-trifluoromethoxy-phenyl)-amine], with below 100 nM; and `CN(c1nc(-c2ccnc(Nc3nc(F)c(F)cc3F)c2)nc2cncc(C3CCC3)c12)C1CCNCC1` [Example 2163, {5-Cyclobutyl-2-[2-(3,5,6-trifluoro-pyridin-2-ylamino)-pyridin-4-yl]-pyrido[3,4-d]pyrimidin-4-yl}-methyl-piperidin-4-yl-amine], with below 100 nM. Then `OC[C@@H](Nc1cc(-c2nc(N3CCNCC3)c3c(C4CC4)cncc3n2)ccn1)c1ccccc1` [Example 2164, (S)-2-[4-(5-Cyclopropyl-4-piperazin-1-yl-pyrido[3,4-d]pyrimidin-2-yl)-pyridin-2-ylamino]-2-phenyl-ethanol], with below 100 nM; and `C[C@@H](Nc1cc(-c2nc(N3CCNCC3)c3c(C4CC4)cncc3n2)ccn1)c1cccc2ccccc12` [Example 2165, [4-(5-Cyclopropyl-4-piperazin-1-yl-pyrido[3,4-d]pyrimidin-2-yl)-pyridin-2-yl]-((R)-1-naphthalen-1-yl-ethyl)-amine], with below 100 nM; and `FC(F)(CNc1cc(-c2nc(N3CCNCC3)c3c(C4CC4)cncc3n2)ccn1)c1ccccc1` [Example 2166, [4-(5-Cyclopropyl-4-piperazin-1-yl-pyrido[3,4-d]pyrimidin-2-yl)-pyridin-2-yl]-(2,2-difluoro-2-phenyl-ethyl)-amine], with below 100 nM. Consider `CN(CC1CCNCC1)c1nc(-c2ccnc(Nc3ncc(F)cc3F)c2)nc2cncc(C3CC3)c12` [Example 2167, {5-Cyclopropyl-2-[2-(3,5-difluoro-pyridin-2-ylamino)-pyridin-4-yl]-pyrido[3,4-d]pyrimidin-4-yl}-methyl-piperidin-4-ylmethyl-amine], for which the IC50 was below 100 nM. To `Fc1cnc(Nc2cc(-c3nc(NC4CCOCC4)c4c(C5CC5)cncc4n3)ccn2)c(F)c1` [Example 2168, {5-Cyclopropyl-2-[2-(3,5-difluoro-pyridin-2-ylamino)-pyridin-4-yl]-pyrido[3,4-d]pyrimidin-4-yl}-(tetrahydro-pyran-4-yl)-amine] belongs 10000 to 40000 nM. Then `CN(c1nc(-c2ccnc(Nc3nc(F)c(F)cc3F)c2)nc2c(Cl)ncc(C3CC3)c12)C1CCNCC1` [Example 2169, {8-Chloro-5-cyclopropyl-2-[2-(3,5,6-trifluoro-pyridin-2-ylamino)-pyridin-4-yl]-pyrido[3,4-d]pyrimidin-4-yl}-methyl-piperidin-4-yl-amine], with below 100 nM. To `CN(c1nc(-c2ccnc(Nc3ncc(F)cc3F)c2)nc2c(Cl)ncc(C3CC3)c12)C1CCNCC1` [Example 2170, {8-Chloro-5-cyclopropyl-2-[2-(3,5-difluoro-pyridin-2-ylamino)-pyridin-4-yl]-pyrido[3,4-d]pyrimidin-4-yl}-methyl-piperidin-4-yl-amine] belongs below 100 nM; to `Fc1cc(Cl)cnc1Nc1cc(-c2nc(N3CCNCC3)c3c(C4CC4)cncc3n2)ccn1` [Example 2171, (5-Chloro-3-fluoro-pyridin-2-yl)-[4-(5-cyclopropyl-4-piperazin-1-yl-pyrido[3,4-d]pyrimidin-2-yl)-pyridin-2-yl]-amine], below 100 nM; to `CN(c1nc(-c2ccnc(Nc3ncc(F)cc3F)c2)nc2cncc(C3CC3)c12)C1CCOCC1` [Example 2172, {5-Cyclopropyl-2-[2-(3,5-difluoro-pyridin-2-ylamino)-pyridin-4-yl]-pyrido[3,4-d]pyrimidin-4-yl}-methyl-(tetrahydro-pyran-4-yl)-amine], 1000 to 10000 nM. Consider `Fc1cnc(Nc2cc(-c3nc(N4CCC(C5CCOCC5)C4)c4c(C5CC5)cncc4n3)ccn2)c(F)c1` (centres unmarked) [Example 2173, (4-{5-Cyclopropyl-4-[3-(tetrahydro-pyran-4-yl)-pyrrolidin-1-yl]-pyrido[3,4-d]pyrimidin-2-yl}-pyridin-2-yl)-(3,5-difluoro-pyridin-2-yl)-amine], for which the half-maximal inhibitory concentration (IC50) was in the range of 1000 to 10000 nM. To `CC1(Nc2nc(-c3ccnc(Nc4ncc(F)cc4F)c3)nc3cncc(C4CC4)c23)CCNCC1` [Example 2174, {5-Cyclopropyl-2-[2-(3,5-difluoro-pyridin-2-ylamino)-pyridin-4-yl]-pyrido[3,4-d]pyrimidin-4-yl}-(4-methyl-piperidin-4-yl)-amine] belongs below 100 nM. Then `CC1(C)CNCCC1Nc1nc(-c2ccnc(Nc3ncc(F)cc3F)c2)nc2cncc(C3CC3)c12` (centres unmarked) [Example 2175, {5-Cyclopropyl-2-[2-(3,5-difluoro-pyridin-2-ylamino)-pyridin-4-yl]-pyrido[3,4-d]pyrimidin-4-yl}-(3,3-dimethyl-piperidin-4-yl)-amine], with below 100 nM; and `CC1(C)CNCCC1Nc1nc(-c2ccnc(Nc3nc(F)c(F)cc3F)c2)nc2cncc(C3CC3)c12` (centres unmarked) [Example 2176, {5-Cyclopropyl-2-[2-(3,5,6-trifluoro-pyridin-2-ylamino)-pyridin-4-yl]-pyrido[3,4-d]pyrimidin-4-yl}-(3,3-dimethyl-piperidin-4-yl)-amine], with below 100 nM. To `CC1(C)CC(Nc2cc(-c3nc(N4CCNCC4)c4c(C5CC5)cncc4n3)ccn2)c2ccccc21` (centres unmarked) [Example 2177, [4-(5-Cyclopropyl-4-piperazin-1-yl-pyrido[3,4-d]pyrimidin-2-yl)-pyridin-2-yl]-(3,3-dimethyl-indan-1-yl)-amine] belongs below 100 nM. In the case of `Fc1cc(F)c(Nc2cc(-c3nc(N4CCNCC4)c4c(C5CC5)cnc(Cl)c4n3)ccn2)nc1F` [Example 2178, [4-(8-Chloro-5-cyclopropyl-4-piperazin-1-yl-pyrido[3,4-d]pyrimidin-2-yl)-pyridin-2-yl]-(3,5,6,-trifluoro-pyridin-2-yl)-amine], the IC50 is below 100 nM. To `Fc1cccnc1-c1cc2c(-c3nc(N4CCNCC4)c4c(C5CC5)cncc4n3)ccnc2[nH]1` [Example 2179, 5-Cyclopropyl-2-[2-(3-fluoro-pyridin-2-yl)-1H-pyrrolo[2,3-b]pyridin-4-yl]-4-piperazin-1-yl-pyrido[3,4-d]pyrimidine] belongs below 100 nM.
